The results in this text go back to patent publication US20040029860A1, “Anti-proliferative drugs” (priority 2000, published 2004).

The subject of assay [1] is human neuroblastoma (SK-N-SH). In words: cell viability (neutral red, Almar Blue, Hoechst dye), neuroblastoma SK-N-SH. The format is cell-based. Particulars: Homo sapiens, SK-N-SH; Table 1A.
Assay [2] deals with human neuroblastoma (SH-SY5T). The assay is described as follows: cell viability, neuroblastoma SH-SY5T. The format is cell-based. The following applies: for IC50: Homo sapiens. How it is done:
The effect of paroxetine on primary tissue cultures was also evaluated. […] The viability of the cells after treatment with paroxetine was determined by neutral red (NR) technology 24 hr. post treatment.
(§1) Cyclic antidepressants at varying concentrations (between 10PM and 100 μM) was applied to neuroblastoma SH-SY5T, 3LL lung carcinoma, prostate (LN-CapAp), melanoma B16, and cell viability was determined as described above.

For another assay, the system named is rat glioblastoma (C6). In words: cell viability, glioma C6. The format is cell-based. Particulars: Rattus norvegicus; Table 1A.
For another assay, the system named is mouse melanoma (B-16). The assay is described as follows: cell viability, melanoma B16. The format is cell-based. Particulars: Mus musculus. How it is done: as §1
The subject of assay [3] is human prostate (LN-CapAp). In words: cell viability, prostate LN-Cap. The following applies: Homo sapiens, LNCaP. The format is cell-based. How it is done:
The effect of trifluoperazine and flupentixol was studied in two cell-lines of human prostate cancer: androgen dependent (LN-Cap) and androgen independent (PC-3).
as §1

For a further assay, the system named is human breast (MCF7). The assay is described as follows: cell viability, breast MCF7. Particulars: Table 1A. The format is cell-based.
For the next assay, the system named is Colon Ht-29. The assay is described as follows: cell viability, colon Ht-29. Type of assay: cell-based. The following applies: Homo sapiens, Table 1A.
Assay [4] has as its system mouse-selected embryo, neuronal culture. In words: primary tissue culture, neuronal. Particulars: data not shown. Type of assay: cell-based.
For assay [5], the system named is rat new born myocytic culture. The assay is described as follows: primary tissue culture, myocytic. Type of assay: cell-based. Particulars: data not shown.
For assay [6], the system named is Neuroblastoma cell line (SK-NSH). In words: apoptosis by flow cytometry of propidium iodide stained cells. The following applies: after 24 and 48 hours at 20 μM and higher; FIG. 7. Type of assay: cell-based, human. How it is done:
The percentage of apoptosis of the cells was determined by flow cytometry of propidium iodide stained cells using a fluorescence-activated cell sorter (FACScan) (Becton and Dickenson, Heidelberg, Calif.) equipped with an argon ion laser (an excitation wavelength, […]) and a doublet discrimination module (DDM). Lysis II (BD) software was used for data acquisition.
(In general: Flow cytometry measures light scatter and fluorescence of single cells or particles in a stream.)

The next assay relates to p53 mutant. The assay is described as follows: p53 mutant expression, western blotting in glioma C6. Type of assay: cell-based, rat. The following applies: 60 μM, FIG. 8. Background: In western blotting, separated proteins are transferred to a membrane and probed.
The subject of the next assay is HaCat keratinocytes. In words: keratinocyte viability, Neutral red, HaCat. Type of assay: cell-based, human. Particulars: for IC50: Homo sapiens, HaCaT. How it is done:
(§2) The drugs were administered at concentrations within the range of 5-100 μM and cell viability was measured 24 hr post-administration by Neutral red staining. The efficiency of the agents against viability of the cell lines was evaluated also by comparison with two commonly used anticancer agents (Doxorubicin and 5-fluorouracil (5-FU)) at equimolar concentrations.

The next assay has as its system HaCat I5 keratinocytes. The assay is described as follows: keratinocyte viability, Neutral red, HaCat I5. Type of assay: cell-based, human. How it is done: as §2
In the next assay the test system is different cell-lines. The assay is described as follows: mean IC50 over cell lines and therapeutic index.
In a further assay the test system is mouse lung sarcoma (3LL). In words: cell viability, lung 3LL. Type of assay: cell-based. Particulars: Mus musculus; Table 1B; read-out: Cell viability IC50 Lungs Sarcoma 3LL. How it is done: In another experiment the effect of clotiapine at the same concentrations on the viability of mouse lung carcinoma (3LL) cells was determined.
as §1

Assay [7] concerns mouse melanoma B16 MDR cells. The assay is described as follows: cell viability, melanoma B16 MDR. Type of assay: cell-based.
The subject of assay [8] is mouse Lewis lung carcinoma (3LL). The assay is described as follows: in vivo effect on Lewis lung carcinoma (3LL) in mice. Particulars: 3LL inoculated C57 mice, i.p. daily, thioridazine 15 mg/kg, others 30 mg/kg. How it is done:
Female C57 black mice aged 4 weeks were used in order to evaluate the in vivo effect of cyclic psychotropic agents on tumor cells. In particular, animals were divided into 5 groups (6-8 mice each). Animals were inoculated with mouse Lewis lung carcinoma (3LL, 0.5 million each) by i.v. injection to the tail vein and then treated by i.p. injection daily for 3 weeks with the following different agents
(5) Paroxetine (30 mg/kg).
During the treatment period animals were inspected daily and their body weight registered twice a week. […] After the four weeks of treatment the mice were sacrificed and their lungs dissected and weighted.

The test system of another assay is B16 melanoma cells. The assay is described as follows: sensitization to doxorubicin, B16 melanoma cells. Type of assay: cell-based, mouse. The following applies: B16 melanoma cells, FIG. 6D.
For assay [9], the system named is HaCat II-4RT keratinocytes. In words: keratinocyte viability, Neutral red, HaCat II4. Type of assay: cell-based. Particulars: Homo sapiens. How it is done: as §2
The mark [10] stands for this setting: Homo sapiens, HaCaT, mean of the determinations, read-out: IC50 HaCat I5 ME.
[11] abbreviates: Homo sapiens, HaCaT, single determinations, read-out: IC50 HaCat I5.

Read-outs that look alike come from different tables or passages of the source. A value given as a limit tells only on which side of the number the result lay.

For the compound `OCCN1CCN(CCCN2c3ccccc3Sc3ccc(Cl)cc32)CC1` [Perphenazine], the IC50 in [1] came to 21 µM; in assay [2] (Table 1A, read-out: Viability IC50 Neuroblastoma SH-SY5T), 15 µM; in the assay on rat glioblastoma (C6) it was 22 µM; in the assay with mouse melanoma (B-16) (Table 1A, read-out: Viability IC50 Melanoma B16), 23 µM; in assay [3] (Table 1A, read-out: Viability IC50 Prostate LN-Cap), 18 µM; with human breast (MCF7), 21 µM. In addition, the IC50 is 22 µM in the assay on Colon Ht-29; 60 µM in assay [4]; 35 to 55 µM in [5]; 24 µM in the assay with HaCat keratinocytes (mean of the determinations, read-out: IC50 HaCat ME); 24 µM with HaCat keratinocytes (single determinations, read-out: IC50 HaCat); 26 µM in the assay on HaCat I5 keratinocytes (setting [10]). Moreover, the IC50 was found to be 30 µM in the assay on HaCat I5 keratinocytes (setting [11]); 22 µM in the assay on HaCat I5 keratinocytes (single determinations, read-out: IC50 HaCat I5); 20 ± 2.7 µM in the assay on different cell-lines (read-out: IC50 Mean ± SD). The “apoptosis (in words)” value in [6] is “mortal and dramatic apoptosis”. The “mean decrease in expression of p53 mutant” value with p53 mutant is given as 30%.

With `Fc1ccc([C@@H]2CCNC[C@H]2COc2ccc3c(c2)OCO3)cc1` [Paroxetine], the “sensitivity of neuroblastoma cells compared to primary tissue (viability)” value in [2] (10 μM to 100 μM, neutral red, 24 hr post treatment, vs primary mouse brain and selected neurons, FIG. 1) is “increased sensitivity”. Besides, the IC50 was 15 µM in assay [2] (Table 1B, read-out: Cell viability IC50 Neuroblastoma SH-SY5T); 15 to 20 µM in the assay on mouse melanoma (B-16) (Example 9, read-out: IC50 levels, wild type B16 mouse melanoma); 12 µM with mouse melanoma (B-16) (Table 1B, read-out: Cell viability IC50 Melanoma 16B); 16 µM in assay [3] (Table 1B, read-out: Cell viability IC50 Prostate LN-Cap); below 10 µM in the assay with mouse lung sarcoma (3LL); 15 to 20 µM in assay [7] (B16, Example 9, FIG. 9, read-out: IC50 levels, transformed (MDR) B16 melanoma). Also, the IC50 in assay [7] (Table 1B, read-out: Cell viability IC50 Melanoma B16 MDR) stood at 11 µM; with HaCat I5 keratinocytes (setting [10]), 21 µM; in the assay with HaCat I5 keratinocytes (setting [11]) it was 21 µM; in assay [9], 12 µM; in the assay on different cell-lines (read-out: IC50 Mean +/− SD), 12.4 µM. Further, the “survival rate during four weeks of treatment” value in [8] was 5/6. Further, in assay [8] (FIG. 5), the “lungs weight / tumor size compared to control group” value is given as “effective in reducing tumor size”. For the same compound, in the assay with B16 melanoma cells, the “potentiation of doxorubicin (in words)” value is recorded as “same effect”. For the same compound, the “cell viability HaCat (in words)” value in the assay on HaCat keratinocytes (5-100 μM, 24 hr, Neutral red, FIG. 13A, 15A) is listed as “effective in reducing cell viability”. In addition, the “cell viability HaCat I5 (in words)” value with HaCat I5 keratinocytes (5-100 μM, 24 hr, Neutral red, FIG. 13B, 15B) was “effective in reducing cell viability”.
